The source of these data is patent US20170210723A1, “MOLECULES HAVING PESTICIDAL UTILITY, AND INTERMEDIATES, COMPOSITIONS, AND PROCESSES, RELATED THERETO” (priority 2016, published 2017).

In assay [1] the test system is Cabbage Looper (Trichoplusia ni). As to the kind of experiment: Bioassays on CL, 128-well diet tray assay. The class given is in vivo. The settings on record: Trichoplusia ni, 168 h; 50 μg/cm^2 on artificial diet, second instar larvae, five to seven days; read-out: CL % Control (or Mortality) rating. On the procedure:
Bioassays on CL were conducted using a 128-well diet tray assay.
One to five second instar CL larvae were placed in each well (3 mL) of the diet tray that had been previously filled with 1 mL of artificial diet to which 50 μg/cm^2 of the test molecule (dissolved in 50 μL of 90:10 acetone-water mixture) had been applied (to each of eight wells) and then allowed to dry. Trays were covered with a clear self-adhesive cover and held at 25° C., 14:10 light-dark for five to seven days. Percent mortality was recorded for the larvae in each well; activity in the eight wells was then averaged. The results are indicated in the table entitled “Table ABC: Biological Results” (See Table Section).
(§1) Bioassays on BAW and CL were conducted according to the procedures outlined in Example A: Bioassays on Beet Armyworm (“BAW”) and Cabbage Looper (“CL”) using the indicated concentrations.

Assay [2] concerns Beet Armyworm (Spodoptera exigua). The assay is described as follows: Bioassays on BAW, 128-well diet tray assay. It counts as in vivo. Conditions: Spodoptera exigua, 168 h; 50 μg/cm^2 on artificial diet, second instar larvae, five to seven days; read-out: BAW % Control (or Mortality) rating. On the procedure:
Bioassays on BAW were conducted using a 128-well diet tray assay. One to five second instar BAW larvae were placed in each well (3 mL) of the diet tray that had been previously filled with 1 mL of artificial diet to which 50 μg/cm^2 of the test molecule (dissolved in 50 μL of 90:10 acetone-water mixture) had been applied (to each of eight wells) and then allowed to dry. Trays were covered with a clear self-adhesive cover and held at 25° C., 14:10 light-dark for five to seven days. Percent mortality was recorded for the larvae in each well; activity in the eight wells was then averaged. The results are indicated in the table entitled “Table ABC: Biological Results” (See Table Section).
as §1

The structures appear in SMILES notation.

In the case of `O=C(NCCS(=O)(=O)c1ccc(Cl)cc1)c1ccc(/C=C/C(c2cc(Cl)c(Cl)c(Cl)c2)C(F)(F)F)cc1Br` (stereo not shown) [F4, (E)-2-Bromo-N-(2-((4-chlorophenyl)sulfonyl)ethyl)-4-(4,4,4-trifluoro-3-(3,4,5-trichlorophenyl)but-1-en-1-yl)benzamide], the mortality at 50 µg/cm2 in assay [1] and in assay [2] was 50 to 100% throughout.

Regarding `O=C(NCCS(=O)(=O)CC(F)(F)F)c1ccc(/C=C/C(c2cc(Cl)c(Cl)c(Cl)c2)C(F)(F)F)cc1Br` (stereo not shown) [F10, (E)-2-Bromo-4-(4,4,4-trifluoro-3-(3,4,5-trichlorophenyl)but-1-en-1-yl)-N-(2-((2,2,2-trifluoroethyl)sulfonyl)ethyl)benzamide], the mortality at 50 µg/cm2 in assay [1] and in assay [2] was 50 to 100% each time.

As to `CC(C)[C@H](C[S+]([O-])CC(F)(F)F)NC(=O)c1ccc(/C=C/C(c2cc(Cl)c(Cl)c(Cl)c2)C(F)(F)F)cc1C(F)(F)F` (stereo partly drawn) [F15, N-((2R)-3-methyl-1-((2,2,2-trifluoroethyl)sulfinyl)butan-2-yl)-4-((E)-4,4,4-trifluoro-3-(3,4,5-trichlorophenyl)but-1-en-1-yl)-2-(trifluoromethyl)benzamide], the mortality at 50 µg/cm2 in assay [1] and in assay [2] was 50 to 100% throughout.

Regarding `CC(C)[C@H](CS(=O)(=O)CC(F)(F)F)NC(=O)c1ccc(/C=C/C(c2cc(Cl)c(Cl)c(Cl)c2)C(F)(F)F)cc1C(F)(F)F` (stereo partly drawn) [F16, N—((R)-3-Methyl-1-((2,2,2-trifluoroethyl)sulfonyl)butan-2-yl)-4-((E)-4,4,4-trifluoro-3-(3,4,5-trichlorophenyl)but-1-en-1-yl)-2-(trifluoromethyl)benzamide], the mortality at 50 µg/cm2 in assay [1] and in assay [2] was 50 to 100% each time.

As to `CC[C@H](CS(=O)(=O)CC(F)(F)F)NC(=O)c1ccc(/C=C/C(c2cc(Cl)c(Cl)c(Cl)c2)C(F)(F)F)cc1C(F)(F)F` (stereo partly drawn) [F17, 4-((E)-4,4,4-Trifluoro-3-(3,4,5-trichlorophenyl)but-1-en-1-yl)-N—((R)-1-((2,2,2-trifluoroethyl)sulfonyl)butan-2-yl)-2-(trifluoromethyl)benzamide], the mortality at 50 µg/cm2 in assay [1] and in assay [2] was 50 to 100% in each case.

Take `CC[C@H](C[S+]([O-])CC(F)(F)F)NC(=O)c1ccc(/C=C/C(c2cc(Cl)c(Cl)c(Cl)c2)C(F)(F)F)cc1C(F)(F)F` (stereo partly drawn) [F18, 4-((E)-4,4,4-Trifluoro-3-(3,4,5-trichlorophenyl)but-1-en-1-yl)-N-((2R)-1-((2,2,2-trifluoroethyl)sulfinyl)butan-2-yl)-2-(trifluoromethyl)benzamide]: the mortality at 50 µg/cm2 in assay [1] and in assay [2] was 50 to 100% in each case.

With `CC[C@H](CS(=O)(=O)CC1CC1(F)F)NC(=O)c1ccc(/C=C/C(c2cc(Cl)c(Cl)c(Cl)c2)C(F)(F)F)cc1Br` (stereo partly drawn) [F19, 2-Bromo-N-((2R)-1-(((2,2-difluorocyclopropyl)methyl)sulfonyl)butan-2-yl)-4-((E)-4,4,4-trifluoro-3-(3,4,5-trichlorophenyl)but-1-en-1-yl)benzamide], the mortality at 50 µg/cm2 in assay [1] and in assay [2] was 50 to 100% throughout.

Take `C[C@H](C[S+]([O-])CC(F)(F)F)NC(=O)c1ccc(/C=C/C(c2cc(Cl)c(Cl)c(Cl)c2)C(F)(F)F)cc1C(F)(F)F` (stereo partly drawn) [F23, 4-((E)-4,4,4-Trifluoro-3-(3,4,5-trichlorophenyl)but-1-en-1-yl)-N-((2R)-1-((2,2,2-trifluoroethyl)sulfinyl)propan-2-yl)-2-(trifluoromethyl)benzamide]: the mortality at 50 µg/cm2 in assay [1] and in assay [2] was 50 to 100% throughout.

For the molecule `CCO/C(=C\C(c1cc(Cl)c(Cl)c(Cl)c1)C(F)(F)F)c1ccc(C(=O)N[C@H](C)CSCC(F)(F)F)c(C(F)(F)F)c1` (stereo partly drawn) [F29, 4-((Z)-1-ethoxy-4,4,4-trifluoro-3-(3,4,5-trichlorophenyl)but-1-en-1-yl)-N—((R)-1-((2,2,2-trifluoroethyl)thio)propan-2-yl)-2-(trifluoromethyl)benzamide], the mortality at 50 µg/cm2 in assay [1] was 0%; in assay [2] it was 50 to 100%.

As to `CCO/C(=C\C(c1cc(Cl)c(Cl)c(Cl)c1)C(F)(F)F)c1ccc(C(=O)N[C@H](C)C[S+]([O-])CC(F)(F)F)c(C(F)(F)F)c1` (stereo partly drawn) [F30, 4-((Z)-1-ethoxy-4,4,4-trifluoro-3-(3,4,5-trichlorophenyl)but-1-en-1-yl)-N-((2R)-1-((2,2,2-trifluoroethyl)sulfinyl)propan-2-yl)-2-(trifluoromethyl)benzamide], the mortality at 50 µg/cm2 in assay [1] and in assay [2] was 50 to 100% throughout.

For `CO/C(=C\C(c1cc(Cl)c(Cl)c(Cl)c1)C(F)(F)F)c1ccc(C(=O)N[C@H](C)CSCC(F)(F)F)c(C(F)(F)F)c1` (stereo partly drawn) [F31, 4-((Z)-4,4,4-Trifluoro-1-methoxy-3-(3,4,5-trichlorophenyl)but-1-en-1-yl)-N—((R)-1-((2,2,2-trifluoroethyl)thio)propan-2-yl)-2-(trifluoromethyl)benzamide], the mortality at 50 µg/cm2 in assay [1] and in assay [2] was 50 to 100% each time.

For the molecule `C[C@H](CSCC(F)(F)F)NC(=O)c1ccc(/C=C/C(c2cc(Cl)c(Cl)c(Cl)c2)C(F)(F)F)cc1C(F)F` (stereo partly drawn) [F32, 2-(Difluoromethyl)-4-((E)-4,4,4-trifluoro-3-(3,4,5-trichlorophenyl)but-1-en-1-yl)-N—((R)-1-((2,2,2-trifluoroethyl)thio)propan-2-yl)benzamide], the mortality at 50 µg/cm2 in assay [1] and in assay [2] was 50 to 100% each time.

Take `CCO/C(=C/C(c1cc(Cl)c(Cl)c(Cl)c1)C(F)(F)F)c1ccc(C(=O)N[C@H](C)CSCC(F)(F)F)c(C(F)(F)F)c1` (stereo partly drawn) [F33, 4-((E)-1-ethoxy-4,4,4-trifluoro-3-(3,4,5-trichlorophenyl)but-1-en-1-yl)-N—((R)-1-((2,2,2-trifluoroethyl)thio)propan-2-yl)-2-(trifluoromethyl)benzamide]: the mortality at 50 µg/cm2 in assay [1] and in assay [2] was 50 to 100% each time.

For `C[C@H](CS(=O)(=O)CC(F)(F)F)NC(=O)c1ccc(/C=C/C(c2cc(Cl)c(Cl)c(Cl)c2)C(F)(F)F)cc1C(F)F` (stereo partly drawn) [F43, 2-(Difluoromethyl)-4-((E)-4,4,4-trifluoro-3-(3,4,5-trichlorophenyl)but-1-en-1-yl)-N—((R)-1-((2,2,2-trifluoroethyl)sulfonyl)propan-2-yl)benzamide], the mortality at 50 µg/cm2 in assay [1] and in assay [2] was 50 to 100% each time.

As to `CC(C)(C[S+]([O-])CC(F)(F)F)NC(=O)c1ccc(/C=C/C(c2cc(Cl)c(Cl)c(Cl)c2)C(F)(F)F)cc1C(F)(F)F` (stereo not shown) [F47, (E)-N-(2-Methyl-1-((2,2,2-trifluoroethyl)sulfinyl)propan-2-yl)-4-(4,4,4-trifluoro-3-(3,4,5-trichlorophenyl)but-1-en-1-yl)-2-(trifluoromethyl)benzamide], the mortality at 50 µg/cm2 in assay [1] and in assay [2] was 50 to 100% each time.

For the molecule `CCc1cc(/C=C/C(c2cc(Cl)c(Cl)c(Cl)c2)C(F)(F)F)ccc1C(=O)N[C@H](C)C[S+]([O-])CC(F)(F)F` (stereo partly drawn) [F55, 2-Ethyl-4-((E)-4,4,4-trifluoro-3-(3,4,5-trichlorophenyl)but-1-en-1-yl)-N-((2R)-1-((2,2,2-trifluoroethyl)sulfinyl)propan-2-yl)benzamide], the mortality at 50 µg/cm2 in assay [1] and in assay [2] was 50 to 100% throughout.

Regarding `C[C@H](CSCC(F)(F)F)NC(=O)c1ccc(/C=C/C(c2cc(Cl)c3c(c2)OCO3)C(F)(F)F)cc1C(F)(F)F` (stereo partly drawn) [F75, 4-((E)-3-(7-Chlorobenzo[d][1,3]dioxol-5-yl)-4,4,4-trifluorobut-1-en-1-yl)-N—((R)-1-((2,2,2-trifluoroethyl)thio)propan-2-yl)-2-(trifluoromethyl)benzamide], the mortality at 50 µg/cm2 in assay [1] and in assay [2] was 50 to 100% throughout.

In the case of `C[C@H](CS(=O)(=O)CC(F)(F)F)NC(=O)c1ccc(/C=C/C(c2cc(Cl)c3c(c2)OCO3)C(F)(F)F)cc1C(F)(F)F` (stereo partly drawn) [F76, 4-((E)-3-(7-Chlorobenzo[d][1,3]dioxol-5-yl)-4,4,4-trifluorobut-1-en-1-yl)-N—((R)-1-((2,2,2-trifluoroethyl)sulfonyl)propan-2-yl)-2-(trifluoromethyl)benzamide], the mortality at 50 µg/cm2 in assay [1] and in assay [2] was 50 to 100% throughout.

Take `CCCS(=O)(=O)C[C@@H](C)NC(=O)c1ccc(/C=C/C(c2cc(Cl)c(Cl)c(Cl)c2)C(F)(F)F)cc1C(F)(F)F` (stereo partly drawn) [F79, N—((R)-1-(Propylsulfonyl)propan-2-yl)-4-((E)-4,4,4-trifluoro-3-(3,4,5-trichlorophenyl)but-1-en-1-yl)-2-(trifluoromethyl)benzamide]: the mortality at 50 µg/cm2 in assay [1] and in assay [2] was 50 to 100% throughout.

Consider `CC(C)S(=O)(=O)C[C@@H](C)NC(=O)c1ccc(/C=C/C(c2cc(Cl)c(Cl)c(Cl)c2)C(F)(F)F)cc1C(F)(F)F` (stereo partly drawn) [F80, N—((R)-1-(Isopropylsulfonyl)propan-2-yl)-4-((E)-4,4,4-trifluoro-3-(3,4,5-trichlorophenyl)but-1-en-1-yl)-2-(trifluoromethyl)benzamide], for which the mortality at 50 µg/cm2 in assay [1] and in assay [2] was 50 to 100% each time.
